According to patent publication US12227488B2, “Small molecule degraders of Helios and methods of use” (DANA-FARBER CANCER INSTITUTE, INC., priority 2018, dated 2025):

Assays:
[1] = biological target: T1, IKZF1 (Homo sapiens, UniProt Q13422); assay: Cellular degradation assay, eGFP-IKZF1Δ fusion with mCherry reporter in Flp-In 293 cells; format: cell-based; conditions: for IKZF1 GFP/RFP Relative Abundance: 5 h incubation, n=1
T1 construct: expressed in transfected cells; host or cells: Flp-In 293
T1 sequence (Q13422 83-213 isoform Q13422-7 limits assumed): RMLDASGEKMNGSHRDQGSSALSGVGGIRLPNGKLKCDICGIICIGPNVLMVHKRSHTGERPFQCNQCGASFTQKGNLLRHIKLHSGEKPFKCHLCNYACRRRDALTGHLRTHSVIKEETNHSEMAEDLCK
T1 sequence (Q96SW2 whole entry partner, the tested form may be a part): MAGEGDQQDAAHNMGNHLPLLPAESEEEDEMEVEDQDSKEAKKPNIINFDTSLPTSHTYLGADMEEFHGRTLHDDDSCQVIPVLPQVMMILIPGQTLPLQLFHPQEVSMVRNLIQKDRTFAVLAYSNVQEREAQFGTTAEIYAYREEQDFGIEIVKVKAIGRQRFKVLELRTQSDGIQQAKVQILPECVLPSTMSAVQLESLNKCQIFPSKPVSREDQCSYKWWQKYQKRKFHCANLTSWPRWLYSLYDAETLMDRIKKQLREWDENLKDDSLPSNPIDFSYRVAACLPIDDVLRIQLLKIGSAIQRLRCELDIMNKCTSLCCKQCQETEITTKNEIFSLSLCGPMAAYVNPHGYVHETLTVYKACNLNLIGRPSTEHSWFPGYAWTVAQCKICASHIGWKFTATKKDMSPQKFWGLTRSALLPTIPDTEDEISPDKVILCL
T1 sequence (Q16531 2-1140 partner limits assumed): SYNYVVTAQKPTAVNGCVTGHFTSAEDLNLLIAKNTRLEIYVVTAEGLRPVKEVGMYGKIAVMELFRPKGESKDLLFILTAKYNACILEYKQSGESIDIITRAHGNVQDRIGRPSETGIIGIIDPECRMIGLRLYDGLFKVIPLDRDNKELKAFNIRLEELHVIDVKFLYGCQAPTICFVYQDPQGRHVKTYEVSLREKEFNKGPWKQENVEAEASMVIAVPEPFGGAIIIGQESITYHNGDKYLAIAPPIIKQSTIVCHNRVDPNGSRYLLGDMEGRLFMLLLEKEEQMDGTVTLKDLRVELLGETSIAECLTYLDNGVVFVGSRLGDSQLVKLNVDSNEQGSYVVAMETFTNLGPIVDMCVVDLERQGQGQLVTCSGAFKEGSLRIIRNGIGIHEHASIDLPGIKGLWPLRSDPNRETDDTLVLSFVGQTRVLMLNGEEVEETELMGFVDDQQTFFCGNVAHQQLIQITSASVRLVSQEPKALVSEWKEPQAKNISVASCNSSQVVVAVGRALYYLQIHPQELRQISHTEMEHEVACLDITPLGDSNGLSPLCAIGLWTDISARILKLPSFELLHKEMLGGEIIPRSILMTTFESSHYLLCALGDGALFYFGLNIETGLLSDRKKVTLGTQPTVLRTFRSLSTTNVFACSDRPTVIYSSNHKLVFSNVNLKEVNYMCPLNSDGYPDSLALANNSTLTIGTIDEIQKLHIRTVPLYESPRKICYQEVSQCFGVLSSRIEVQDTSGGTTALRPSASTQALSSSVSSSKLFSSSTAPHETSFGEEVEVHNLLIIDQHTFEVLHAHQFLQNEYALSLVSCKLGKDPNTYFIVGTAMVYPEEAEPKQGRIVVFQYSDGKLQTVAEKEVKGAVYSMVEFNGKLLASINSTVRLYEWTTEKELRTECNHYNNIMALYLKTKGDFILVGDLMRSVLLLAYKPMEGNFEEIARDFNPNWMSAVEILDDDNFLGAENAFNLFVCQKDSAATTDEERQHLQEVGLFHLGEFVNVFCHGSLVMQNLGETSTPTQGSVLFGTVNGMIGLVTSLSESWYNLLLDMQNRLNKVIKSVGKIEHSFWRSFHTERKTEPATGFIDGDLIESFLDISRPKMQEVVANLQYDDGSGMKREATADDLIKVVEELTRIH
Summary of the method: (§1)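 DC50,5 h derived by variable-slope nonlinear fit of the per-well ratio of GFP-positive to mCherry-positive cells, imaged after 5 h compound exposure at 0.5% DMSO.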

[2] = system: IKZF2; assay: Cellular degradation assay, eGFP-IKZF2Δ fusion with mCherry reporter in Flp-In 293 cells; format: cell-based; conditions: for IKZF2 GFP/RFP Relative Abundance: 5 h incubation, n=1
Summary of the method: as §1

[3] = biological target: T2, CRBN and Helios (IKZF2) (Homo sapiens, UniProt Q96SW2+Q9UKS7); assay: TR-FRET dimerization assay (CRBN-IKZF2 ternary complex formation); format: binding; conditions: n=1
T2 construct: His (N); Strep (N)
T2 sequence (Q96SW2 whole entry): as the sequence (Q96SW2 whole entry partner, the tested form may be a part) above
T2 sequence (Q9UKS7 whole entry): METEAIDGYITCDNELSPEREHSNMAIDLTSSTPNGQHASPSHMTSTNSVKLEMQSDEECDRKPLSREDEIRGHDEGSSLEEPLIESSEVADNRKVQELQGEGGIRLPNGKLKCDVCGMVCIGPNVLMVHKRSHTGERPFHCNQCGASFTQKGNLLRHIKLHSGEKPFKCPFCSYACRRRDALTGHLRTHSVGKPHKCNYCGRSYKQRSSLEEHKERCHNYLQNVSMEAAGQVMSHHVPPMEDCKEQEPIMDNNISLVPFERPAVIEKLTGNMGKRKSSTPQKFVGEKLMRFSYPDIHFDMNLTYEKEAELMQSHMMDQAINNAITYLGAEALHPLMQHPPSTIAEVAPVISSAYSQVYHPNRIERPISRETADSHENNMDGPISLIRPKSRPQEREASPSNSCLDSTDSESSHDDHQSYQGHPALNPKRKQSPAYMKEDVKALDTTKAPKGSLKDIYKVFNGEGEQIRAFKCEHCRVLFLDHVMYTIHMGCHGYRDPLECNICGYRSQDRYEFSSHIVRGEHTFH
Summary of the method: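 Compound-induced IKZF2 recruitment to CRBN was read as the 520/490 nm TR-FRET ratio after 15 min at rt. The mix held biotinylated IKZF2, BODIPY-labeled CRBN bound to DDB1 lacking the BPB propeller, tracer Tb-streptavidin and compound titrations; n=1, from ≥3 technical replicates per well.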

[4] = biological target: GSPT1 (Homo sapiens, UniProt P15170+Q96SW2); assay: Cellular degradation assay, eGFP-GSPT1 fusion with mCherry reporter in Flp-In 293 cells; format: cell-based; design: expressed in transfected cells; host or cells: Flp-In 293; conditions: for GSPT1 GFP/RFP Relative Abundance: 5 h incubation, n=1
GSPT1, sequence (P15170 whole entry, the tested form may be a part): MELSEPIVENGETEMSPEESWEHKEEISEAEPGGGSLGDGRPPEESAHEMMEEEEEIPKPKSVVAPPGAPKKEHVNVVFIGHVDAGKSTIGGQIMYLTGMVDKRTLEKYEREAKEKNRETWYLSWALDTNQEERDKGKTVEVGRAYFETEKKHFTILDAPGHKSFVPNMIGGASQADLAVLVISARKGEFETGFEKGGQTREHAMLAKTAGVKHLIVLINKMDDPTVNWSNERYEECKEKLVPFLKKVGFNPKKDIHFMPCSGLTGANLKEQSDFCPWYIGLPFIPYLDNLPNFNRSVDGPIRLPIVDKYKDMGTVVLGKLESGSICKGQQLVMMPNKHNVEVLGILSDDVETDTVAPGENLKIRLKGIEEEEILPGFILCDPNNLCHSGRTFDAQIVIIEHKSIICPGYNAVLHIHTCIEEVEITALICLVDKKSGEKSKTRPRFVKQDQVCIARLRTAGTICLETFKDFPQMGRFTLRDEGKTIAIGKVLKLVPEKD
GSPT1, sequence (Q96SW2 whole entry, the tested form may be a part): as the sequence (Q96SW2 whole entry partner, the tested form may be a part) above
GSPT1, sequence (Q16531 whole entry partner, the tested form may be a part): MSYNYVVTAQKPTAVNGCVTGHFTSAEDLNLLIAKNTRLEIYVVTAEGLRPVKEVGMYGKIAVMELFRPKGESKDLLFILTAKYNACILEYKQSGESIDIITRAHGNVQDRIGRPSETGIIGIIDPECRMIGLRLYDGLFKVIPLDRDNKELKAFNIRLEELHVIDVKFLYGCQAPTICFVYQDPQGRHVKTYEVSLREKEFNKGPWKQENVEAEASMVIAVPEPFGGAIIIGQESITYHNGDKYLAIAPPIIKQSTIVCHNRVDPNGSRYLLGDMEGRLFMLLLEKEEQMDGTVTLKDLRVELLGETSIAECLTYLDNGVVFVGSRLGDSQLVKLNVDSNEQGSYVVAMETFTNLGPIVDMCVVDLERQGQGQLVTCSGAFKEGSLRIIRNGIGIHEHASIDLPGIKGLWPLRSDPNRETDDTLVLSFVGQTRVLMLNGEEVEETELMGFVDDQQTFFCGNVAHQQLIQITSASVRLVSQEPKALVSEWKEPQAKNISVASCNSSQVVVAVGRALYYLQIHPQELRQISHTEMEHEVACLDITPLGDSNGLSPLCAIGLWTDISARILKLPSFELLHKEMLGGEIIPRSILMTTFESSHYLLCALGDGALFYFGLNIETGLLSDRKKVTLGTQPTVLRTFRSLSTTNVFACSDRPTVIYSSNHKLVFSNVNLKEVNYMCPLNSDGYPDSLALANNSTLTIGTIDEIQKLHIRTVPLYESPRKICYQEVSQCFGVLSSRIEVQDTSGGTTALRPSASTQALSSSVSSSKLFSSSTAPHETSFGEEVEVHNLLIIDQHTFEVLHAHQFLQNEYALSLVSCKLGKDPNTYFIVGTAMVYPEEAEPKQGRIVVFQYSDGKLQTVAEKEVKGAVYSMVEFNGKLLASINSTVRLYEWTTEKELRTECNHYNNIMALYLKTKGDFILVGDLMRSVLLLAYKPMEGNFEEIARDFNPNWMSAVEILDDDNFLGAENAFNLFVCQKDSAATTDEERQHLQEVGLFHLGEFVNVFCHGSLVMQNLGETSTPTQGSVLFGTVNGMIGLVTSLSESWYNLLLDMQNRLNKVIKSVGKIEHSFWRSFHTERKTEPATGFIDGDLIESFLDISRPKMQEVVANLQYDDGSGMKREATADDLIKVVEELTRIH
Description: IKZF1Δ, IKZF2Δ, GSPT1 and SALL4 ZnF1-2 were subcloned into mammalian pcDNA5/FRT Vector (Ampicillin and Hygromycin B resistant) modified to contain MCS-eGFP-P2A-mCherry. […] Following 2-3 passage cycle, FACS (FACSAria™ II, BD) was used to enrich for cells expressing eGFP and mCherry. Cells stably expressing the IKZF1Δ, IKZF2Δ, GSPT1 or SALL4 Znf1-2 GFP fusions with mCherry reporter were seeded at 30-50% confluency in 384-well plates with 50 μL FluoroBrite™ DMEM media (Thermo Fisher Scientific, A18967) containing 10% FBS per well a day before compound treatment. Compound titrations were dispensed using a D300e Digital Dispenser (HP), normalized to 0.5% DMSO, and incubated with cells for 5 hours.
The resulting images were analyzed using CellProfiler™. A series of image analysis steps (‘image analysis pipeline’) was constructed. First, the red and green channels were aligned and cropped to target the middle of each well (to avoid analysis of heavily clumped cells at the edges), and a background illumination function was calculated for both red and green channels of each well individually and subtracted to correct for illumination variations across the 384-well plate from various sources of error. An additional step was then applied to the green channel to suppress the analysis of large auto fluorescent artifacts and enhance the analysis of cell specific fluorescence by way of selecting for objects under a given size, 30 A.U., and with a given shape, speckles. mCherry-positive cells were then identified in the red channel filtering for objects between 8-60 pixels in diameter and using intensity to distinguish between clumped objects. The green channel was then segmented into GFP positive and negative areas and objects were labeled as GFP positive if at least 40% of it overlapped with a GFP positive area. The fraction of GFP-positive cells/mCherry-positive cells in each well was then calculated, and the green and red images were rescaled for visualization.
The degradation assay was performed as described above. […] Degradation was measured after 5 h of compound treatment and the concentrations that lead to half degradation at 5 h (DC50,5 h) were calculated using the nonlinear fit variable slope model (GraphPad Software).

[5] = compound concentration 2.00E−05
[6] = compound concentration 2.00E−06
[7] = compound concentration 2.00E−07
[8] = compound concentration 6.6667E−05
[9] = compound concentration 6.6667E−06
[10] = compound concentration 6.6667E−07 (667 nM)
[11] = half degradation at 5 h (DC50,5 h), triplicate, 11 point dose response

Compound | IKZF1 GFP/RFP Relative Abundance [1, 5] | IKZF1 GFP/RFP Relative Abundance [1, 6] | IKZF1 GFP/RFP Relative Abundance [1, 7] | IKZF2 GFP/RFP Relative Abundance [2, 5] | IKZF2 GFP/RFP Relative Abundance [2, 6] | IKZF2 GFP/RFP Relative Abundance [2, 7] | TR-FRET-IKZF2 (Normalized to CC-885) [3, 8] | TR-FRET-IKZF2 (Normalized to CC-885) [3, 9] | TR-FRET-IKZF2 (Normalized to CC-885) [3, 10] | GSPT1 GFP/RFP Relative Abundance [4, 5] | GSPT1 GFP/RFP Relative Abundance [4, 6] | GSPT1 GFP/RFP Relative Abundance [4, 7] | DC50 [1, 11] | potency of IKZF2 degradation, in words ([2]; Table 3 summary) | DC50 [2, 11] | DC50 [4, 11]
Cc1ccc(CC(=O)NCc2cccc(NC3=CC(=O)N(C4CCC(=O)NC4=O)C3=O)c2)cc1C (stereo not shown) [Compound 60, 2-(3,4-dimethylphenyl)-N-(3-((1-(2,6-dioxopiperidin-3-yl)-2,5-dioxo-2,5-dihydro-1H-pyrrol-3-yl)amino)benzyl)acetamide] | 0.132 | 0.078 | 0.091 | 0.087 | 0.151 | 0.185 | 1.082 | 0.945 | 0.833 | 0.387 | 0.558 | 0.528 |  |  |  | 
Cc1ccc(NC(=O)N[C@@H](C)c2cccc(NC3=CC(=O)N(C4CCC(=O)NC4=O)C3=O)c2)cc1Cl (stereo partly drawn) [Compound 71, 1-(3-chloro-4-methylphenyl)-3-((1S)-1-(3-((1-(2,6-dioxopiperidin-3-yl)-2,5-dioxo-2,5-dihydro-1H-pyrrol-3-yl)amino)phenyl)ethyl)urea] | 0.088 | 0.086 | 0.076 | 0.016 | 0.018 | 0.019 | 1.811 | 1.675 | 1.657 |  |  |  | 2.1 nM | most potent against IKZF2 | 1.9 nM | > 1000 nM
Cc1ccc(NCc2cccc(NC3=CC(=O)N(C4CCC(=O)NC4=O)C3=O)c2)cc1Cl (stereo not shown) [Compound 63, 3-(3-((3-(((3-chloro-4-methylphenyl)amino)methyl)-phenyl)amino)-2,5-dioxo-2,5-dihydro-1H-pyrrol-1-yl)piperidine-2,6-dione] | 0.081 | 0.068 | 0.086 | 0.428 | 0.339 | 0.470 | 0.703 | 0.649 | 0.625 | 0.274 | 0.722 | 0.844 |  |  |  | 
Cc1ccc(NC(=O)OCc2cccc(NC3=CC(=O)N(C4CCC(=O)NC4=O)C3=O)c2)cc1Cl (stereo not shown) [Compound 48, 3-((1-(2,6-dioxopiperidin-3-yl)-2,5-dioxo-2,5-dihydro-1H-pyrrol-3-yl)amino)benzyl (3-chloro-4-methylphenyl)carbamate] | 1.041 | 0.903 | 1.000 | 1.053 | 1.076 | 1.057 | 0.140 | 0.079 | 0.044 | 1.591 | 0.365 | 0.579 |  |  |  | 
O=C1CCC(N2C(=O)C=C(Nc3cccc(CNC(=O)Nc4ccc(Cl)c(Cl)c4)c3)C2=O)C(=O)N1 (stereo not shown) [Compound 59, 1-(3,4-dichlorophenyl)-3-(3-((1-(2,6-dioxopiperidin-3-yl)-2,5-dioxo-2,5-dihydro-1H-pyrrol-3-yl)amino)benzyl)urea] | 0.144 | 0.097 | 0.066 | 0.099 | 0.072 | 0.108 | 1.224 | 1.165 | 1.035 | 0.247 | 0.734 | 0.952 |  |  |  | 
